Test results: ChEMBL document CHEMBL1177754, “Onionin A from Allium cepa inhibits macrophage activation” (J Nat Prod, 2010)
Calls of active or inactive are those of the source. No cut-off for these calls is given here.

Tested on: Macrophage
Test: Inhibition of CD163 expression in human monocyte-derived macrophages at 30 uM for 24 hrs treated before IL10 challenge for 2 days by cell-ELISA
Type: functional, cell-based

SMILES: C/C=C/[C@H]1[C@H](C)[C@@H](C)[C@@H]([SH+][O-])[S+]1[O-] (stereo partly specified)
- Activity: Active
